Patent US8541442B2, “Indole derivatives as anticancer agents” (Janssen Pharmaceutica N.V., priority 2009, dated 2013)

Experiments:
p53 in A2780 cells = experiment: p53 ELISA (preservation of p53 in A2780 cells); assay type: cell-based, human; details: 16 hours treatment; for minimal effective concentration: Homo sapiens, A2780, 16 h, read-out: p53-elisa LAD (lowest dose giving at least 140% of the value for p53 present in the control)
Description: The capacity of the present compounds to preserve p53 in A2780 cells was measured with the p53 enzyme linked immunosorbent assay. The p53 assay is a “sandwich” enzyme immunoassay employing two polyclonal antibodies. A polyclonal antibody, specific for the p53 protein, has been immobilized onto the surface of the plastic wells. Any p53 present in the sample to be assayed will bind to the capture antibody. The biotinylated detector polyclonal antibody also recognizes p53 protein, and will bind to any p53, which has been retained by the capture antibody. The detector antibody, in turn, is bond by horseradish peroxidase-conjugated streptavidin. The horseradish peroxidase catalyses the conversion of the chromogenic substrate o-phenylene diamine, the intensity of which is proportional to the amount of p53 protein bond to the plate. The colored reaction product is quantified using a spectrophotometer. Quantitation is achieved by the construction of a standard curve using known concentrations of purified recombinant HIS tagged p53 protein (see example C.1.).
A2780 cells (ATCC) were cultivated in RPMI 1640 supplemented with 10% fetal calf serum (FCS), 2 mM L-glutamine and gentamycin at 37° C. in a humidified incubator with 5% CO2.
A2780 cells were seeded at 20.000 cells per well in a 96 well plate, cultured for 24 hours and treated with compound for 16 hours at 37° C. in a humidified incubator. After incubation, the cells were washed once with phosphate-buffered saline and 30 μl, per well, low salt RIPA buffer (20 mM tris, pH7.0, 0.5 mM EDTA, 1% Nonidet P40, 0.5% DOC, 0.05% SDS, 1 mM PMSF, 1 μg/ml aprotinin and 0.5 μ/ml leupeptin) was added. Plates were placed on ice for 30 minutes to complete the lysis. p53 protein was detected in de lysates by using the sandwich ELISA, described below.
High binding polystyrene EIA/RIA 96 well plates (Costar 9018) were coated with the capture antibody pAb1801 (Abcam ab28-100) at a concentration of 1 μg/ml in coating buffer (0.1 M NaHCO3 pH8.2), 50 μl per well. The antibody was allowed to adhere overnight at 4° C. Coated plates were washed once with phosphate-buffered saline (PBS)/0.05% Tween 20 and 300 μl of blocking buffer (PBS, 1% bovine serum albumins (BSA)) was added, for an incubation period of 2 hours at room temperature. Dilutions of purified recombinant HIS tagged p53 protein, ranging from 3-200 ng/ml, were made in blocking buffer and used as standards.
Plates were washed twice with PBS/0.05% Tween 20 and blocking buffer or standards were added at 80 μl/well. To the standards, 20 μl of lysis buffer was added. The samples were added to the other wells at 20 μl lysate/well. After an overnight incubation at 4° C., plates were washed twice with PBS/0.05% Tween 20. Aliquots of 100 μl secondary polyclonal antibody p53(FL-393) (Tebubio, sc-6243) at a concentration of 1 μg/ml in blocking buffer were added to each well and allowed to adhere for 2 hours at room temperature. Plates were washed three times with PBS/0.05% Tween 20. Detection antibody anti-rabbit HRP (sc-2004, Tebubio) at 0.04 μg/ml in PBS/1% BSA was added and incubated for 1 hour at room temperature. Plates were washed three times with PBS/0.05% Tween 20 and 100 μl of substrate buffer was added (substrate buffer was prepared shortly before use by adding 1 tablet of 10 mg o-phenylene diamine (OPD) from Sigma and 125 μl 3% H2O2 to 25 ml OPD buffer: 35 mM citric acid, 66 mM Na2HPO4, pH5.6). After 5 to 10 minutes, colour reaction was stopped by adding 50 μl stop buffer (1 M H2SO4) per well. The absorbance at dual wavelengths of 490/655 nm was measured using a Biorad micro plate reader and the results were then analyzed.
For each experiment, controls (containing no drug) and a blank incubation (containing no cells or drugs) were run in parallel. The blank value was subtracted from all control and sample values. For each sample, the value of p53 (in absorbance units) was expressed as the percentage of the value for p53 present in the control. […]

[1] = test system: A2780 ovarian cancer cells; experiment: Alamar Blue cell proliferation assay, A2780; assay type: cell-based, human; details: 4-day incubation; for IC50: Homo sapiens, A2780, 96 h, read-out: A2780 cell proliferation inhibition pIC50 (converted)
Description: The human A2780 ovarian cancer cells were a kind gift from Dr. T. C. Hamilton (Fox Chase Cancer Centre, Pennsylvania, U.S.A.). The cells were cultured in RPMI 1640 medium supplemented with 2 mM L-Glutamine, 50 μg/ml gentamicin and 10% fetal calf serum.
Potassium Phosphate Buffer 0.1 M (PPB) was made as follows: 2.72 gram KH2PO4 and 13.86 gram K2HPO4 were dissolved in 500 ml milli-Q H2O, the pH was adjusted to pH 7.4 and the volume was brought to 1 liter with milli-Q H2O; the buffer was filter sterilised and stored at room temperature. Resazurin stock solution (PPB-A) was prepared fresh by dissolving 45 mg resazurin in 15 ml PBS. 30 mM potassium ferricyanide (PPB-B) was prepared by dissolving 0.987 gram potassium ferricyanide in 100 ml PPB. 30 mM potassium ferrocyanide (PPB-C) was prepared by dissolving 1.266 gram potassium ferrocyanide in 100 ml PPB.
Mixture of PPB-A, PPB-B and PPB-C was prepared by mixing equal volumes of the respective solutions. Resazurin work solution (herein termed “Alamar Blue” solution) was prepared by diluting said mixture 20×(vol/vol) in PPB and filter sterilising; the Alamar Blue solution could be kept at 4° C. for a maximum of 2 weeks.
For experiments in 384 wells plates the cells were seeded at a density of 5×10^3 cells/ml in Falcon 384-well culture plates (Life Technologies, Merelbeke, Belgium), black with clear bottom, in 45 μl culture medium. Cells were allowed to adhere to plastic for 24 hr. The tested compound was pre-diluted (1/50 in culture medium) and 5 μl pre-diluted compound was added to the wells. Following 4-day incubation, 10 μl of the Alamar Blue solution was added to each well and the cells were further incubated for 5 hrs (A2780) at 37° C. The fluorescence intensity was measured for each well with a Fluorescence plate reader (Fluorskan, Labsystems, 540 nm excitation and 590 nm emission)
The antiproliferative activity was calculated as percentage of remaining viable cells in treated versus control (untreated cells) conditions. Within an experiment, the result for each experimental condition is the mean of 3 replicate wells. When appropriate, the experiments were repeated to establish full concentration-response curves. When appropriate, IC50-values (concentration of the drug, needed to reduce cell growth to 50% of the control) were computed using probit analysis for graded data (Finney, D. J., Probit Analyses, 2nd Ed. Chapter 10, Graded Responses, Cambridge University Press, Cambridge 1962). Herein the effects of test compounds are expressed as pIC50 (the negative log value of the IC50-value (M)) (see Table 5A).

A2780 cell proliferation inhibition pIC50 [1] | Structure (SMILES) | p53-elisa LAD (lowest dose giving at least 140% of the value for p53 present in the control) (p53 in A2780 cells) | minimal effective concentration (p53 in A2780 cells) | IC50 [1]
 | COC1CCc2c(Nc3ccc(NCCc4c[nH]c5c(C(C)(C)O)cccc45)cc3)ccnc21 (single isomer, unassigned) [Compound 25] | 0.10 µM |  | 
 | Cc1cc(Nc2ccnc3c2CCC3O)ccc1NCCc1c[nH]c2c(CCC(C)O)cccc12 (stereo not shown) [Compound 9] |  | 1 µM | 141 nM
7.34 | Cc1cc(Nc2ccnc(CO)c2)ccc1NCCc1c[nH]c2c(C(C)(C)O)cccc12 [Compound 19] | 0.10 µM |  | 
7.27 | Cc1cc(Nc2ccnc3c2CCC3O)ccc1NCCc1c[nH]c2c(C(C)O)cccc12 (single isomer, unassigned) [Compound 15] | 0.10 µM |  | 
7.20 | Cc1cc(Nc2ccnc3c2CCC3O)ccc1NCCc1c[nH]c2c(C(C)O)cccc12 (single isomer, unassigned) [Compound 12] | 0.10 µM |  | 
 | Cc1cc(Nc2ccnc3c2CCC3(C)O)ccc1NCCc1c[nH]c2c(C(C)(C)O)cccc12 (single isomer, unassigned) [Compound 27] |  | 0.1 µM | 141 nM
6.87 | COC1CCc2c(Nc3ccc(NCCc4c[nH]c5c(C(C)O)cccc45)c(C)c3)ccnc21 (stereo not shown) [Compound 16] | 0.30 µM |  | 
 | Cc1cc(Nc2ccnc3c2CCC3O)ccc1NCCc1c[nH]c2c(C(C)(C)O)cccc12 (stereo not shown) [Compound 20] |  | 0.03 µM | 51.3 nM
 | Cc1cc(Nc2ccnc(CO)c2)ccc1NCCc1c[nH]c2c(C(C)O)cccc12 (stereo not shown) [Compound 5] |  | 0.1 µM | 52.5 nM
 | OCc1cccc2c(CCNc3ccc(Nc4ccnc5c4CCC5O)cc3)c[nH]c12 (stereo not shown) [Compound 6] |  | 1 µM | 214 nM
6.52 | Cc1cc(Nc2ccnc3c2CCC3O)ccc1NCCc1c[nH]c2c(CCO)cccc12 (single isomer, unassigned) [Compound 23] | 3.00 µM |  | 
6.55 | COc1cc(Nc2ccnc3c2CCC3O)ccc1NCCc1c[nH]c2c(C(C)(C)O)cccc12 (stereo not shown) [Compound 11] | 0.30 µM |  | 
 | Cc1cc(Nc2ccnc3c2CCC3(C)O)ccc1NCCc1c[nH]c2c(C(C)(C)O)cccc12 (stereo not shown) [Compound 1] |  | 0.1 µM | 115 nM
 | COC1CCc2c(Nc3ccc(NCCc4c[nH]c5c(C(C)(C)O)cccc45)cc3)ccnc21 (single isomer, unassigned) [Compound 24] | 0.03 µM |  | 66.1 nM
 | C=C(C)c1cccc2c(CCNc3ccc(Nc4ccnc5c4CCC5OC)cc3)c[nH]c12 (stereo not shown) [Compound 7] |  | 0.3 µM | 110 nM
 | Cc1cc(Nc2ccncc2)ccc1NCCc1c[nH]c2c(C(C)(C)O)cccc12 [Compound 2] |  | 0.1 µM | 41.7 nM
6.26 | Cc1cc(Nc2ccncc2)ccc1NCCc1c[nH]c2c(C(O)C(C)C)cccc12 (stereo not shown) [Compound 22] | 3.00 µM |  | 
 | Cc1cc(Nc2ccnc3c2CCC3=O)ccc1NCCc1c[nH]c2c(C(C)O)cccc12 (stereo not shown) [Compound 4] |  | 0.1 µM | 182 nM
6.70 | Cc1cc(Nc2ccnc3c2CCC3(C)O)ccc1NCCc1c[nH]c2c(C(C)O)cccc12 (stereo not shown) [Compound 10] | 1.0 µM |  | 

Structure (SMILES) | A2780 cell proliferation inhibition pIC50 [1] | p53-elisa LAD (lowest dose giving at least 140% of the value for p53 present in the control) (p53 in A2780 cells) | minimal effective concentration (p53 in A2780 cells) | IC50 [1]
CC(C)(O)c1cccc2c(CCNc3ccc(Nc4ccnc5c4CCC5(C)O)cc3)c[nH]c12 (single isomer, unassigned) [Compound 30] | 7.04 | 0.10 µM |  | 
Cc1cc(Nc2ccnc3c2CCC3O)ccc1NCCc1c[nH]c2c(C(C)(C)O)cccc12 (stereo not shown) [Compound 18] | 7.47 | 0.03 µM |  | 
COC1CCc2c(Nc3ccc(NCCc4c[nH]c5c(C(C)(C)O)cccc45)c(C)c3)ccnc21 (single isomer, unassigned) [Compound 29] | 7.14 | 0.03 µM |  | 
CC(C)(O)c1cccc2c(CCNc3ccc(Nc4ccnc5c4CCC5(C)O)cc3)c[nH]c12 (single isomer, unassigned) [Compound 31] | 6.84 | 0.10 µM |  | 
Cc1cc(Nc2ccnc3c2CCC3(C)O)ccc1NCCc1c[nH]c2c(C(C)(C)O)cccc12 (single isomer, unassigned) [Compound 26] | 7.11 | 0.10 µM |  | 
COC1CCc2c(Nc3ccc(NCCc4c[nH]c5c(C(C)(C)O)cccc45)c(C)c3)ccnc21 (single isomer, unassigned) [Compound 28] | 6.89 | 0.10 µM |  | 
